How the values were obtained:
Experiment in all cases: Test C postemergence
Assay type in all cases: in vivo
[1] = test system: lambsquarters (Chenopodium album); conditions: Chenopodium album, post-emergence, 336 h, Postemergence, scale 0 to 100, read-out: Plant response rating, Lambsquarters
Method in brief: (§1)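 Seeds in loam-sand soil were treated preemergence, and plants at the 1- to 4-leaf stage (2-18 cm) in peat-based medium were sprayed postemergence, with test chemicals in a non-phytotoxic solvent containing surfactant. After 13-15 days in a greenhouse, response was rated visually against controls from 0 (no effect) to 100 (complete control).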

[2] = test system: blackgrass (Alopecurus myosuroides); conditions: Alopecurus myosuroides, post-emergence, 336 h, Postemergence, scale 0 to 100, read-out: Plant response rating, Blackgrass
Method in brief: as §1

[3] = test system: yellow nutsedge (Cyperus esculentus); conditions: Cyperus, post-emergence, 336 h, Postemergence, scale 0 to 100, read-out: Plant response rating, Nutsedge, Yellow
Method in brief: as §1

wild oat (Avena fatua) = conditions: Avena fatua, post-emergence, Postemergence, scale 0 to 100, read-out: Plant response rating, Oat, Wild
Method in brief: as §1

soybean (Glycine max) = conditions: Glycine max, post-emergence, Postemergence, scale 0 to 100, read-out: Plant response rating, Soybean
Method in brief: as §1

[4] = test system: pigweed (Amaranthus retroflexus); conditions: Amaranthus retroflexus, post-emergence, 336 h, Postemergence, scale 0 to 100, read-out: Plant response rating, Pigweed
Method in brief: as §1

[5] = test system: waterhemp (common waterhemp, Amaranthus rudis); conditions: Amaranthus tuberculatus, post-emergence, Postemergence, scale 0 to 100, read-out: Plant response rating, Waterhemp
Method in brief: as §1

[6] = test system: oilseed rape (Brassica napus); conditions: Brassica napus, post-emergence, Postemergence, scale 0 to 100, read-out: Plant response rating, Oilseed Rape
Method in brief: as §1

corn (Zea mays) = conditions: Zea mays, post-emergence, 336 h, Postemergence, scale 0 to 100
Method in brief: as §1

[7] = test system: johnsongrass (Sorghum halepense); conditions: Sorghum halepense, post-emergence, 336 h, Postemergence, scale 0 to 100, read-out: Plant response rating, Johnsongrass
Method in brief: as §1

[8] = test system: ragweed (common ragweed, Ambrosia elatior); conditions: Ambrosia artemisiifolia, post-emergence, 336 h, Postemergence, scale 0 to 100, read-out: Plant response rating, Ragweed
Method in brief: as §1

[9] = test system: Italian ryegrass (Lolium multiflorum); conditions: Lolium multiflorum, post-emergence, 336 h, Postemergence, scale 0 to 100, read-out: Plant response rating, Ryegrass, Italian
Method in brief: as §1

[10] = test system: giant foxtail (Setaria faberii); conditions: Setaria faberi, post-emergence, 336 h, Postemergence, scale 0 to 100, read-out: Plant response rating, Foxtail, Giant
Method in brief: as §1

[11] = test system: barnyardgrass (Echinochloa crus-galli); conditions: Echinochloa crus-galli, post-emergence, Postemergence, scale 0 to 100, read-out: Plant response rating, Barnyardgrass
Method in brief: as §1

[12] = test system: chickweed (common chickweed, Stellaria media); conditions: Stellaria media, post-emergence, Postemergence, scale 0 to 100, read-out: Plant response rating, Chickweed
Method in brief: as §1

N#Cc1cccc(Oc2ncc(Cl)cn2)c1Oc1ncc(C(F)(F)F)cn1 [Compound 38, 3-[(5-chloro-2-pyrimidinyl)oxy]-2-[[5-(trifluoromethyl)-2-pyrimidinyl]oxy]-benzonitrile]
pest or weed control at 16 g/ha ([1]; 16 g ai/ha): 65% | pest or weed control at 31 g/ha ([1]; 31 g ai/ha): 70% | pest or weed control at 62 g/ha ([1]; 62 g ai/ha): 80% | pest or weed control at 125 g/ha ([1]; 125 g ai/ha): 90% | pest or weed control at 16 g/ha ([2]; 16 g ai/ha): 0% | pest or weed control at 31 g/ha ([2]; 31 g ai/ha): 0% | pest or weed control at 62 g/ha ([2]; 62 g ai/ha): 10% | pest or weed control at 125 g/ha ([2]; 125 g ai/ha): 15% | pest or weed control at 31 g/ha ([3]; 31 g ai/ha): 0% | pest or weed control at 62 g/ha ([3]; 62 g ai/ha): 5% | pest or weed control at 125 g/ha ([3]; 125 g ai/ha): 10% | pest or weed control at 31 g/ha (wild oat (Avena fatua); 31 g ai/ha): 5% | pest or weed control at 62 g/ha (wild oat (Avena fatua); 62 g ai/ha): 10% | pest or weed control at 125 g/ha (wild oat (Avena fatua); 125 g ai/ha): 10% | plant injury at 31 g/ha (soybean (Glycine max); 31 g ai/ha): 85% | plant injury at 62 g/ha (soybean (Glycine max); 62 g ai/ha): 50% | plant injury at 125 g/ha (soybean (Glycine max); 125 g ai/ha): 80% | pest or weed control at 31 g/ha ([4]; 31 g ai/ha): 85% | pest or weed control at 62 g/ha ([4]; 62 g ai/ha): 90% | pest or weed control at 125 g/ha ([4]; 125 g ai/ha): 90% | pest or weed control at 31 g/ha ([5]; 31 g ai/ha): 75% | pest or weed control at 62 g/ha ([5]; 62 g ai/ha): 85% | pest or weed control at 125 g/ha ([5]; 125 g ai/ha): 95% | plant injury at 31 g/ha ([6]; 31 g ai/ha): 20% | plant injury at 62 g/ha ([6]; 62 g ai/ha): 25% | plant injury at 125 g/ha ([6]; 125 g ai/ha): 5% | Corn plant response rating (crop injury, 0 = no effect, 100 = complete kill) at 16 g/ha (corn (Zea mays); 16 g ai/ha): 10% | Corn plant response rating (crop injury, 0 = no effect, 100 = complete kill) at 31 g/ha (corn (Zea mays); 31 g ai/ha): 20% | Corn plant response rating (crop injury, 0 = no effect, 100 = complete kill) at 62 g/ha (corn (Zea mays); 62 g ai/ha): 15% | Corn plant response rating (crop injury, 0 = no effect, 100 = complete kill) at 125 g/ha (corn (Zea mays); 125 g ai/ha): 15% | pest or weed control at 16 g/ha ([7]; 16 g ai/ha): 5% | pest or weed control at 31 g/ha ([7]; 31 g ai/ha): 5% | pest or weed control at 62 g/ha ([7]; 62 g ai/ha): 5% | pest or weed control at 125 g/ha ([7]; 125 g ai/ha): 10% | pest or weed control at 31 g/ha ([8]; 31 g ai/ha): 55% | pest or weed control at 62 g/ha ([8]; 62 g ai/ha): 70% | pest or weed control at 125 g/ha ([8]; 125 g ai/ha): 50% | pest or weed control at 31 g/ha ([9]; 31 g ai/ha): 5% | pest or weed control at 62 g/ha ([9]; 62 g ai/ha): 5% | pest or weed control at 125 g/ha ([9]; 125 g ai/ha): 5% | pest or weed control at 16 g/ha ([10]; 16 g ai/ha): 5% | pest or weed control at 31 g/ha ([10]; 31 g ai/ha): 10% | pest or weed control at 62 g/ha ([10]; 62 g ai/ha): 10% | pest or weed control at 125 g/ha ([10]; 125 g ai/ha): 25% | pest or weed control at 16 g/ha ([11]; 16 g ai/ha): 10% | pest or weed control at 31 g/ha ([11]; 31 g ai/ha): 20% | pest or weed control at 62 g/ha ([11]; 62 g ai/ha): 20% | pest or weed control at 125 g/ha ([11]; 125 g ai/ha): 35% | pest or weed control at 16 g/ha ([12]; 16 g ai/ha): 50% | pest or weed control at 31 g/ha ([12]; 31 g ai/ha): 50% | pest or weed control at 62 g/ha ([12]; 62 g ai/ha): 70% | pest or weed control at 125 g/ha ([12]; 125 g ai/ha): 85%
